Test results from US9512140B2, “(Thieno[2,3-b][1,5]benzoxazepin-4-yl)piperazin-1-yl compounds as dual activity H1 inverse agonists/5-HT2A antagonists” (priority 2011, dated 2016).
Structures can show the parent of a compound that is named as a salt.

Assays:
[1] = target: 5-HT1D (Homo sapiens, UniProt P28221); assay: 5-HT1D binding
Excerpt: Further, the compounds of the invention may be tested in binding assays and functional activity assays by well known methods for other physiologically important receptors such as, but not limited to, the hERO channel, other serotonin receptors (specifically 5-HT1B, 5-HT1D, receptors, lack of agonist activity at 5-HT2B receptors, 5-HT2C, 5-HT5, 5-HT6, and 5-HT7 receptors), dopaminergic receptors (specifically D1, D2, and D3), GABAA receptors, adrenergic receptors and monoamine transporters.

[2] = target: T1, 5-HT2A Receptor (Rattus norvegicus, UniProt P14842); assay: 5-HT2A receptor occupancy (MDL 100907 tracer); type: in vivo; conditions: oral gavage, RO 1 hr. after dosing
T1 construct: from tissue; host or cells: rat brain (frontal cortex against cerebellum), in vivo
T1 sequence (P14842 whole entry): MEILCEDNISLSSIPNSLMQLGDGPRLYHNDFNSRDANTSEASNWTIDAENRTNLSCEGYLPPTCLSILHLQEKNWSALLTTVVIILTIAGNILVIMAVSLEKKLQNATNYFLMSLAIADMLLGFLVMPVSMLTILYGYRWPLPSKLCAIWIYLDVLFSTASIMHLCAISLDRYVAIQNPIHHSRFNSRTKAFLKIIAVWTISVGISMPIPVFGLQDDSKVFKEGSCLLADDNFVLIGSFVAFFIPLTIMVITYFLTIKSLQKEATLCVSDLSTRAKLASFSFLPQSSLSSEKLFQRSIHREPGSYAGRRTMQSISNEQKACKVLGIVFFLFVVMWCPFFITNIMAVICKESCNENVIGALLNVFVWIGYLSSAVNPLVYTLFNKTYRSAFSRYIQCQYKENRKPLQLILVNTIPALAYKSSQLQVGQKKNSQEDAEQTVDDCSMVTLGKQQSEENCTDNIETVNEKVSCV
Experimental: Briefly, male Sprague-Dawley rats (Harlan Sprague-Dawley, Indianapolis, Ind.) weighing approximately 230-280 grams are given ad lib access to food and water until the beginning of the 3-hr. experimental protocol. 1 mg/kg ketanserin (non-selective 5-HT2A antagonist) is used as a positive control to establish assay validity. Test compounds or control are administered by oral gavage in a vehicle comprised of 20% hydroxypropyl beta-cyclodextrin. MDL 100907 ((R)-(+)-α-(2,3-Dimethoxyphenyl)-1-[2-(4-fluorophenyl)ethyl]-4-piperidinemethanol), a selective 5-HT2A antagonist, is used as a tracer. […] It is at the time of tracer administration that RO is considered to be measured. […] The level of MDL 100907 tracer is measured in each cortical and cerebellar sample. RO is calculated using the well-established ratio method which employs a region of high receptor density representative of total binding (frontal cortex) normalized by an area without or with very low levels of receptor (cerebellum). […]
Cortex and cerebellar samples are weighed and placed in conical centrifuge tubes on ice. […] Standards are prepared by adding known quantities of analyte to brain tissue samples from non-treated rats and processing as described above. […]

5-HT1D, sequence (P28221 whole entry, species assumed): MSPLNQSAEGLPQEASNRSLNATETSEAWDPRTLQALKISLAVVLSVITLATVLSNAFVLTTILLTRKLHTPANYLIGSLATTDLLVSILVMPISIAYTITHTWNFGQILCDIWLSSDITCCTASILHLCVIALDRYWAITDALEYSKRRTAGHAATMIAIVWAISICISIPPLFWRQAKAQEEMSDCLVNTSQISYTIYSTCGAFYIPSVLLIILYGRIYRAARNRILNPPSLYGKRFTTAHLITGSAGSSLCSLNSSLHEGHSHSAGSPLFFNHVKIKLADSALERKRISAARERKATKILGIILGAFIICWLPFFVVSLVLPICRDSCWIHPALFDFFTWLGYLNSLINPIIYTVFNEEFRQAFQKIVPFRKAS

In the case of Cc1ccc2c(c1)Oc1sc(C)cc1C(N1CCN(CC(C)(C)C(=O)O)CC1)=N2 [Example 2, 3-[4-(2,8-Dimethylthieno[2,3-b][1,5]benzoxazepin-4-yl)piperazin-1-yl]-2,2-dimethyl-propanoic acid dihydrochloride], the Ki [1] is reported as over 3.98 µM and the ED50 [2] is reported as 0.09 mg/kg.
